Test systems include HCC 2998; HCT-15; HL-60; HOP-62; HOP-92; IGROV-1; K562; MCF7; NCI-H226; PC-3; SF-295; SK-MEL-28; SK-MEL-2; SN12C; SNB-19; TK-10; UACC-62.
Holding throughout (test): growth of human tumour cells (NCI), 48 h

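Five concentrations, 48 hours, 96-well plates. At the GI50, growth is halved.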 Calls of active or inactive are those of the source. Cut-off read from the data, not from the text of the source: active = GI50 up to about 1.1 µM and inactive = higher.

For `Cc1ccnc2nc(-c3cccc(Cl)c3)cc(O)c12`, the GI50 with HCC 2998 was 0.224 µM (active); with HCT-15 it was 0.0407 µM; in the experiment on HL-60, 0.0115 µM (active); in the experiment with HOP-62, 0.0708 µM (active); in the experiment with HOP-92, 2.43 µM (inactive); in the experiment on IGROV-1, 0.185 µM (active). In addition, the GI50 is < 0.0143 µM (active) in the experiment on K562; 0.36 µM (active) in the experiment with MCF7; 3.4 µM (inactive) in the experiment on NCI-H226; 0.0206 µM (active) with PC-3; 0.0426 µM (active) in the experiment with SF-295; 1.9 µM (inactive) in the experiment with SK-MEL-28. For the same compound, the GI50 was 0.0675 µM (active) with SK-MEL-2; 0.139 µM (active) in the experiment on SN12C; 0.132 µM (active) with SNB-19; > 100 µM (inactive) in the experiment on TK-10; 0.0474 µM (active) in the experiment on UACC-62.

Turning to `c1ccc(CCN2CCOCC2)nc1`, the GI50 is > 100 µM (inactive) with HCC 2998; above 100 µM in the experiment with HCT-15; > 100 µM (inactive) with HL-60; > 100 µM (inactive) with HOP-62; > 100 µM (inactive) in the experiment with HOP-92; > 100 µM (inactive) in the experiment with IGROV-1. The GI50 with K562, in the experiment with MCF7, in the experiment with NCI-H226, in the experiment with PC-3, in the experiment with SF-295 and in the experiment with SK-MEL-28 was > 100 µM (inactive) each time. Also, the GI50 in the experiment on SK-MEL-2, in the experiment with SN12C, in the experiment with SNB-19, with TK-10 and in the experiment on UACC-62 was > 100 µM (inactive) throughout.

Turning to `Cn1c(=O)cc(NCCc2ccccc2)[nH]c1=O`, the GI50 with HCC 2998 was 27.8 µM (inactive); with HCT-15, 29.3 µM; in the experiment with HL-60, > 10 µM (inactive); with HOP-62, 30 µM (inactive); in the experiment on HOP-92 it was > 100 µM (inactive); in the experiment on IGROV-1, 38.8 µM (inactive). The GI50 with K562 is 19.1 µM (inactive); in the experiment with MCF7, 19.7 µM (inactive); in the experiment on NCI-H226 it was > 100 µM (inactive); in the experiment on PC-3, 13 µM (inactive); in the experiment with SF-295 it was 20.9 µM (inactive); in the experiment with SK-MEL-28 it was 67.8 µM (inactive). The GI50 with SK-MEL-2 is 51.1 µM (inactive); in the experiment on SN12C, 23.3 µM (inactive); in the experiment with SNB-19, 77.8 µM (inactive); in the experiment with TK-10 it was > 100 µM (inactive); in the experiment with UACC-62, 19.9 µM (inactive).

On to `CC(C)(C)c1cc2c(c(C(C)(C)C)c1O)CC(=O)O2`, for which the GI50 is 35 µM (inactive) with HCC 2998; 45.9 µM with HCT-15; 34.6 µM (inactive) with HL-60; 30.3 µM (inactive) in the experiment on HOP-62; < 0.01 µM (active) in the experiment with HOP-92; 40.1 µM (inactive) with IGROV-1. For the same compound, the GI50 was 34 µM (inactive) with K562; 35.6 µM (inactive) in the experiment with MCF7; 30.8 µM (inactive) in the experiment with NCI-H226; 27.2 µM (inactive) in the experiment on PC-3; 32.2 µM (inactive) in the experiment with SF-295; 40.6 µM (inactive) with SK-MEL-28. Also, the GI50 in the experiment with SK-MEL-2 is 21.5 µM (inactive); in the experiment with SN12C, 34.8 µM (inactive); in the experiment with SNB-19 it was 34.7 µM (inactive); in the experiment on TK-10 it was 30.4 µM (inactive); in the experiment on UACC-62 it was 23.2 µM (inactive).

Regarding `Cc1ccc(S(=O)(=O)NC(=O)C2=C3SCCN3C(=O)N(S(=O)(=O)c3ccc(C)cc3)C2c2ccccc2)cc1` (stereo not drawn), the GI50 in the experiment on HCC 2998 is 12.2 µM (inactive); in the experiment with HCT-15 it was above 100 µM; in the experiment with HL-60, 43.2 µM (inactive); in the experiment with HOP-62, 59.3 µM (inactive); in the experiment with HOP-92, 28.1 µM (inactive); in the experiment on IGROV-1 it was 46.9 µM (inactive). Moreover, the GI50 was 36.7 µM (inactive) with K562; 29.9 µM (inactive) with MCF7; > 100 µM (inactive) in the experiment on NCI-H226; 33.9 µM (inactive) in the experiment on PC-3; 31.5 µM (inactive) with SF-295; 50.2 µM (inactive) in the experiment on SK-MEL-28. For the same compound, the GI50 in the experiment with SK-MEL-2 is 46.8 µM (inactive); with SN12C, 49.9 µM (inactive); in the experiment with SNB-19, 34.8 µM (inactive); in the experiment with TK-10, > 100 µM (inactive); in the experiment on UACC-62 it was 37.3 µM (inactive).

With `CCCCn1c2c(n(CCCC)c1=S)-c1c(n(CCCC)c(=S)n1CCCC)SSc1c(n(CCCC)c(=S)n1CCCC)-c1c(n(CCCC)c(=S)n1CCCC)SSc1c(n(CCCC)c(=S)n1CCCC)-c1c(n(CCCC)c(=S)n1CCCC)SS2`, the GI50 in the experiment with HCC 2998 is 12.6 µM (inactive); in the experiment on HCT-15 it was 7.64 µM; with HL-60, 1.75 µM (inactive); in the experiment with HOP-62 it was 15.2 µM (inactive); with HOP-92, 1.65 µM (inactive); with IGROV-1 it was 2.43 µM (inactive). In addition, the GI50 is 2.03 µM (inactive) in the experiment on K562; 12.8 µM (inactive) in the experiment on MCF7; 10 µM (inactive) with NCI-H226; 2.04 µM (inactive) with PC-3; 10.4 µM (inactive) in the experiment with SF-295; 13.6 µM (inactive) in the experiment with SK-MEL-28. For the same compound, the GI50 is 10.7 µM (inactive) in the experiment on SK-MEL-2; 2.8 µM (inactive) with SN12C; 11.4 µM (inactive) in the experiment with SNB-19; > 30.2 µM (inactive) with TK-10; 3.37 µM (inactive) with UACC-62.

For the compound `C=C(C)[C@@H](C(=O)OC)N1C(=O)c2ccccc2C1=O`, the GI50 in the experiment with HCC 2998 was > 100 µM (inactive); with HCT-15 it was above 100 µM; with HL-60, > 100 µM (inactive); in the experiment with HOP-62 it was > 100 µM (inactive); in the experiment on HOP-92, > 100 µM (inactive); with IGROV-1 it was > 100 µM (inactive). Moreover, the GI50 with K562, with MCF7, in the experiment on NCI-H226, in the experiment on PC-3, with SF-295 and in the experiment with SK-MEL-28 was > 100 µM (inactive) in each case. For the same compound, the GI50 in the experiment with SK-MEL-2, in the experiment with SN12C, with SNB-19, in the experiment with TK-10 and in the experiment on UACC-62 was > 100 µM (inactive) in each case.

With `CCOC(=O)C1=C(Nc2cccc(OC)c2)OCC1=O`, the GI50 in the experiment on HCC 2998 is > 100 µM (inactive); with HCT-15, above 100 µM; in the experiment on HL-60 it was > 100 µM (inactive); in the experiment with HOP-62 it was > 100 µM (inactive); with HOP-92, > 100 µM (inactive); in the experiment on IGROV-1, > 100 µM (inactive). For the same compound, the GI50 in the experiment with K562, with MCF7, in the experiment with NCI-H226, in the experiment on PC-3, in the experiment with SF-295 and in the experiment on SK-MEL-28 was > 100 µM (inactive) each time. For the same compound, the GI50 in the experiment with SK-MEL-2, with SNB-19, in the experiment on TK-10 and in the experiment on UACC-62 was > 100 µM (inactive) throughout.

For the compound `CC(NCc1c(O)ccc2c(-c3ccccc3)cc(=O)oc12)C(=O)O` (stereo not drawn), the GI50 is > 100 µM (inactive) in the experiment with HCC 2998; above 100 µM with HCT-15; > 100 µM (inactive) in the experiment on HL-60; > 100 µM (inactive) in the experiment with HOP-62; 86.1 µM (inactive) with HOP-92; > 100 µM (inactive) with IGROV-1. Besides, the GI50 with K562, in the experiment with MCF7, in the experiment on NCI-H226, in the experiment with PC-3, in the experiment on SF-295 and in the experiment with SK-MEL-28 was > 100 µM (inactive) in each case. Also, the GI50 with SK-MEL-2, in the experiment with SN12C, in the experiment with SNB-19, with TK-10 and in the experiment with UACC-62 was > 100 µM (inactive) throughout.

On to `Cc1ccc(NC(=O)c2ccc(OP(=O)(O)Nc3ccc(C)cc3)cc2)cc1`, for which the GI50 is > 100 µM (inactive) with HCC 2998; above 100 µM with HCT-15; > 100 µM (inactive) in the experiment with HL-60; > 100 µM (inactive) in the experiment with HOP-62; > 100 µM (inactive) in the experiment with HOP-92; > 100 µM (inactive) in the experiment with IGROV-1. In addition, the GI50 in the experiment with K562, in the experiment on MCF7, with NCI-H226, with PC-3, with SF-295 and in the experiment on SK-MEL-28 was > 100 µM (inactive) each time. The GI50 in the experiment on SK-MEL-2 was 12 µM (inactive); in the experiment with SN12C, > 100 µM (inactive); in the experiment with SNB-19, > 100 µM (inactive); in the experiment on TK-10 it was > 100 µM (inactive); in the experiment with UACC-62, > 100 µM (inactive).

For the compound `CC(O)c1cc2c(s1)C(=O)c1scc(C(C)O)c1C2=O` (stereo not drawn), the GI50 is 1.66 µM (inactive) with HCC 2998; 0.352 µM in the experiment with HCT-15; 0.646 µM (active) in the experiment on HL-60; 0.973 µM (active) in the experiment on HOP-62; 1.96 µM (inactive) with HOP-92; 1.68 µM (inactive) in the experiment on IGROV-1. The GI50 in the experiment on K562 was 0.597 µM (active); with MCF7, 0.413 µM (active); with NCI-H226, 2 µM (inactive); with PC-3, 0.388 µM (active); with SF-295 it was 0.168 µM (active); in the experiment with SK-MEL-28 it was 0.279 µM (active). The GI50 was 0.224 µM (active) in the experiment on SK-MEL-2; 0.53 µM (active) in the experiment on SN12C; 0.667 µM (active) in the experiment with SNB-19; 1.69 µM (inactive) in the experiment with TK-10; 0.245 µM (active) in the experiment with UACC-62.

Consider `O=C(Nc1ccn(C2CCC(COC(c3ccccc3)(c3ccccc3)c3ccccc3)O2)c(=O)n1)c1ccccc1` (stereo not drawn), for which the GI50 was 11.5 µM (inactive) in the experiment on HCC 2998; 4.18 µM in the experiment with HCT-15; 1.83 µM (inactive) in the experiment on HL-60; 10.7 µM (inactive) with HOP-62; 1.86 µM (inactive) with HOP-92; 6.04 µM (inactive) in the experiment on IGROV-1. Besides, the GI50 in the experiment with K562 was 2.86 µM (inactive); in the experiment on MCF7, 4.22 µM (inactive); in the experiment on NCI-H226 it was 6.9 µM (inactive); in the experiment with PC-3 it was 1.5 µM (inactive); in the experiment with SF-295 it was 3.11 µM (inactive); with SK-MEL-28, 9.23 µM (inactive). Also, the GI50 is 2.48 µM (inactive) with SK-MEL-2; 1.88 µM (inactive) in the experiment with SN12C; 5.66 µM (inactive) in the experiment with SNB-19; 5.12 µM (inactive) with TK-10; 5.5 µM (inactive) in the experiment on UACC-62.
